The NIST ThermoML archive (doi:10.1021/je100170v)

What was measured:
[1] = Liquid; for mass density / speed of sound: 101 kPa; for speed of sound: Sing-around technique in a fixed-path interferometer; for viscosity: 101.3 kPa
[2] = xn = mol fraction of the nth substance listed; details: 101 kPa, Liquid; for speed of sound: Sing-around technique in a fixed-path interferometer

COCCO [2-methoxyethan-1-ol]
[1]
Details	mass density [kg/m3]	speed of sound [m/s]	viscosity [mPa·s]
298.15 K	959.5	1339.3	1.543
308.15 K	952.1	–	1.256
318.15 K	945.8	–	1.047

COCCO [2-methoxyethan-1-ol] + CCCCCCCCO
[2]
Details	mass density, 298.15 K [kg/m3]	mass density, 308.15 K [kg/m3]	mass density, 318.15 K [kg/m3]	speed of sound, 298.15 K [m/s]	viscosity, 298.15 K [mPa·s]	viscosity, 308.15 K [mPa·s]	viscosity, 318.15 K [mPa·s]
x2 = 0	959.5	952.1	945.8	1339.3	1.543	1.256	1.047
x2 = 0.061	943	935.6	929.5	1334.3	1.677	1.368	1.141
x2 = 0.1275	927.1	920	913.8	1329.3	1.822	1.454	1.209
x2 = 0.2003	912.1	904.9	898.8	1323	1.983	1.582	1.304
x2 = 0.2804	897.4	890.5	884.4	1318	2.145	1.749	1.426
x2 = 0.3688	883.4	876.4	870.5	1314.6	2.408	1.948	1.571
x2 = 0.4671	869.9	862.9	857	1315.4	2.774	2.19	1.781
x2 = 0.5769	857	850	844	1320	3.432	2.67	2.062
x2 = 0.7004	844.6	837.6	831.5	1326.5	4.238	3.19	2.466
x2 = 0.8402	832.8	825.6	819.4	1335.8	5.412	4.012	3.064

CC(=O)N(C)C [N,N-dimethylethanamide]
[1]
Details	mass density [kg/m3]	speed of sound [m/s]	viscosity [mPa·s]
298.15 K	937.2	1458.2	0.937
308.15 K	925.8	–	0.841
318.15 K	917.1	–	0.763

CC(=O)N(C)C [N,N-dimethylethanamide] + CCCCCCCCO
[2]
Details	mass density, 298.15 K [kg/m3]	mass density, 308.15 K [kg/m3]	mass density, 318.15 K [kg/m3]	speed of sound, 298.15 K [m/s]	viscosity, 298.15 K [mPa·s]	viscosity, 308.15 K [mPa·s]	viscosity, 318.15 K [mPa·s]
x2 = 0	937.2	925.8	917.1	1458.2	0.937	0.841	0.763
x2 = 0.0692	923.5	912.7	904.4	1433.5	1.072	0.942	0.851
x2 = 0.1433	910.4	900.2	892.2	1412.4	1.246	1.063	0.947
x2 = 0.2228	897.7	888.1	880.4	1390.3	1.418	1.194	1.046
x2 = 0.3084	885.5	876.3	868.9	1372.5	1.702	1.376	1.185
x2 = 0.4008	873.7	864.8	857.8	1360	2.023	1.614	1.361
x2 = 0.5009	862.3	853.9	847	1353.4	2.399	1.893	1.585
x2 = 0.6095	851.4	843.4	836.7	1348.5	3.111	2.406	1.935
x2 = 0.728	840.9	833.1	826.6	1346.4	4.009	2.988	2.35
x2 = 0.8576	830.9	823.4	816.9	1348	5.318	3.849	2.965
